{"source": "ChEMBL document CHEMBL1158258", "about": "“Bioactive Isoquinoline Quinone from an Undescribed Philippine Marine Sponge of the Genus Xestospongia” (J Nat Prod, 1996)", "key": {"[1]": {"tested_on": "Spodoptera littoralis", "assay": "Insecticidal activity against Spodoptera littoralis neonate larvae assessed as survival at 270 ppm in artificial diet after 6 days relative to control", "assay_type": "functional"}, "[2]": {"tested_on": "Escherichia coli", "assay": "Antibacterial activity against Escherichia coli ATCC 25922 at 100 ug after 24 hrs by agar plate diffusion assay", "assay_type": "functional, organism-based"}, "[3]": {"tested_on": "Bacillus subtilis", "assay": "Antibacterial activity against Bacillus subtilis 168 at 100 ug after 24 hrs by agar plate diffusion assay", "assay_type": "functional", "conditions": "for zone of inhibition at 100 µg/disc: subsp. subtilis str. 168, 24 h, read-out: IZ"}, "[4]": {"tested_on": "Staphylococcus aureus", "assay": "Antibacterial activity against Staphylococcus aureus ATCC 25923 at 100 ug after 24 hrs by agar plate diffusion assay", "assay_type": "functional", "conditions": "ATCC 25923, 24 h, read-out: IZ"}, "[5]": {"tested_on": "Spodoptera littoralis", "assay": "Insecticidal activity against Spodoptera littoralis neonate larvae assessed as survival treated with artificial diet after 6 days", "assay_type": "functional, organism-based"}}, "note": "Calls of active or inactive are those of the source. The calls are words filed in the database; no cut-off is given here.", "data": [{"compound": "C/C=C(/C)C(=O)OCC1C2=C(C=CN1/C=C/C(C)=O)C(=O)C(C)=C(OC)C2=O", "note": "(stereo not given)", "values": [{"measurement": "Activity", "setting": "[1]", "value": 50, "unit": "%"}, {"measurement": "Activity", "setting": "[2]", "value": "inactive"}, {"measurement": "zone of inhibition at 100 µg/disc", "setting": "[3]", "value": 15, "unit": "mm"}, {"measurement": "zone of inhibition at 100 µg/disc", "setting": "[4]", "value": 15, "unit": "mm"}]}, {"compound": "GENTAMICIN", "values": [{"measurement": "inhibition zone (IZ)", "setting": "[3]; subsp. subtilis str. 168", "value": 16, "unit": "mm"}]}, {"compound": "COC1=C(C)C(=O)c2ccnc(C)c2C1=O", "values": [{"measurement": "Activity", "setting": "[1]", "value": 93, "unit": "%"}, {"measurement": "EC50", "setting": "[5]", "value": 35, "unit": "ppm"}, {"measurement": "LC50", "setting": "[5]; Spodoptera littoralis, 144 h", "value": 521, "unit": "µg/mL"}, {"measurement": "Activity", "setting": "[2]", "value": "inactive"}, {"measurement": "zone of inhibition at 100 µg/disc", "setting": "[3]", "value": 12, "unit": "mm"}, {"measurement": "zone of inhibition at 100 µg/disc", "setting": "[4]", "value": 9, "unit": "mm"}]}, {"compound": "C/C=C(/C)C(=O)OCc1nccc2c1C(=O)C(OC)=C(C)C2=O", "note": "[RENIERONE]", "values": [{"measurement": "Activity", "setting": "[1]", "value": 60, "unit": "%"}, {"measurement": "Activity", "setting": "[2]", "value": "inactive"}, {"measurement": "zone of inhibition at 100 µg/disc", "setting": "[3]", "value": 15, "unit": "mm"}, {"measurement": "zone of inhibition at 100 µg/disc", "setting": "[4]", "value": 14, "unit": "mm"}]}]}
